The text below walks through data of ChEMBL document CHEMBL6127083, “A mini-review on integrase inhibitors: The cornerstone of next-generation HIV treatment” (Eur J Med Chem, 2024).

Data set [1] deals with Human immunodeficiency virus 1. The experiment in a line: Antiviral activity against HIV-1 3B infected in human MT4 cells assessed as reduction in viral replication incubated for 5 days by MTT assay. The data set is classed as functional, organism-based. The conditions noted are these: Human immunodeficiency virus 1, 3B, MT4, 120 h. On the technique in general: Tetrazolium assays rely on reduction of a dye to a coloured formazan, in cell work by metabolically active cells.

Data set [2] addresses T1, Human immunodeficiency virus type 1 integrase (Human immunodeficiency virus 1, UniProt Q7ZJM1). The experiment in a line: Inhibition of HIV-1 integrase incubated for 30 mins by strand transfer activity.
In data set [3] the target is T1, Human immunodeficiency virus type 1 integrase. As to the kind of experiment: Inhibition of HIV-1 integrase strand transfer activity.
Data set [4] relates to Human immunodeficiency virus 1. The experiment in a line: Antiviral activity against HIV1 IIIB harboring S230N mutant infected in MT4 cells assessed as reduction in virus induced cytopathic effect incubated for 5 days by MTT assay. The settings on record: Human immunodeficiency virus 1, IIIB, MT4, 120 h. The format is functional, organism-based. (Cytopathic effects are the visible damage that an infection or toxin causes in cultured cells.)

For data set [5], the system named is Human immunodeficiency virus 1. As to the kind of experiment: Antiviral activity against HIV1 IIIB harboring E138K mutant infected in MT4 cells assessed as reduction in virus induced cytopathic effect incubated for 5 days by MTT assay. The format is functional, organism-based. The settings on record: Human immunodeficiency virus 1, IIIB, MT4, 120 h.
Data set [6] relates to Human immunodeficiency virus 1. As to the kind of experiment: Antiviral activity against HIV1 IIIB harboring N155H mutant infected in MT4 cells assessed as reduction in virus induced cytopathic effect incubated for 5 days by MTT assay. The data set is classed as functional, organism-based. The conditions noted are these: Human immunodeficiency virus 1, IIIB, MT4, 120 h.
The nature of data set [7]: Inhibition of wild type HIV integrase strand transfer activity. On the set-up: species or system Human immunodeficiency virus.
In data set [8] the target is Human immunodeficiency virus type 1 integrase (Human immunodeficiency virus 1) (UniProt Q7ZJM1). The experiment in a line: Inhibition of HIV-1 integrase at 20 uM relative to control.
Sequence of Human immunodeficiency virus type 1 integrase (Human immunodeficiency virus 1) (Q7ZJM1 as listed by the source): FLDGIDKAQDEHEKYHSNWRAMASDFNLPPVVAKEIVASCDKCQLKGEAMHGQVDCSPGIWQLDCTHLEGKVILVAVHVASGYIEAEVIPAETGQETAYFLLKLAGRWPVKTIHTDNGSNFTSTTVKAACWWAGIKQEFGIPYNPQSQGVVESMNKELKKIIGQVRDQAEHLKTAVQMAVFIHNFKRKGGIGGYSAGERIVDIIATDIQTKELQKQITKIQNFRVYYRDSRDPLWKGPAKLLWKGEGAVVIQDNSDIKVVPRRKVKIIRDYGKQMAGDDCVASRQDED
Data set [9] has as its system Human immunodeficiency virus 1. The experiment in a line: Antiviral activity against HIV-1 IIIB infected in human MT4 cells assessed as protection against virus induced cytopathic effect. The data set is classed as functional, organism-based. The conditions noted are these: Human immunodeficiency virus 1, IIIB.
Data set [10] concerns the target T1, Human immunodeficiency virus type 1 integrase. The experiment in a line: Inhibition of HIV-1 integrase.
For data set [11], the target named is Human immunodeficiency virus type 1 reverse transcriptase (Human immunodeficiency virus 1, UniProt Q72547). The experiment in a line: Inhibition of recombinant HIV-1 reverse transcriptase associated RNase H extracted from Escherichia coli BL21 (DE3) by microplate reader analysis.
For data set [12], the system named is Human immunodeficiency virus 1. The experiment in a line: Antiviral activity against HIV-1 IIIB infected in human MT2 cells assessed as reduction in virus induced cytopathic effect incubated overnight by ELISA method. The data set is classed as functional, organism-based. The settings on record: Human immunodeficiency virus 1, 3B.
Data set [13] can be described thus: Cytotoxicity against human TZM-bl cells assessed as reduction in cell viability incubated for 48 hrs by MTT assay. The data set is classed as toxicity, cell-based.
For data set [14], the system named is Human immunodeficiency virus 1. The experiment in a line: Antiviral activity against HIV-1 3B infected in human MT4 cells assessed as reduction in virus-induced cytopathic effect measured for 5 days by MTT assay. The format is functional, organism-based. The conditions noted are these: Human immunodeficiency virus 1, 3B, MT4, 120 h.
The target of data set [15] is Human immunodeficiency virus type 1 integrase (Human immunodeficiency virus 1) (UniProt Q7ZJM1). The experiment in a line: Inhibition of HIV-1 integrase at 100 uM relative to control.
A short description of data set [16]: Half life in rat. The data set is classed as ADME. The settings on record: in vivo.
Data set [17] can be described thus: Oral bioavailability in rat at 2 mg/kg by LC-MS/MS analysis. The data set is classed as ADME, organism-based. The settings on record: in vivo.
For data set [18], the system named is Human immunodeficiency virus 1. As to the kind of experiment: Antiviral activity against HIV1 harboring E138K mutant infected in MT4 cells assessed as reduction in virus induced cytopathic effect incubated for 5 days by MTT method. The data set is classed as functional, organism-based. The conditions noted are these: Human immunodeficiency virus 1, MT4, 120 h.

T1 sequence (Q7ZJM1 whole entry): as the sequence (Q7ZJM1 as listed by the source) above

For the compound `N#CCCc1cccc(C(=O)CC(=O)C(=O)O)c1`, the IC50 (as a rule, the point on the concentration scale where inhibition reaches its midpoint) in [1] was greater than 25 µM.

Turning to `COc1ccc(C(=O)CC(=O)C(=O)O)cc1CN=[N+]=[N-]`, the IC50 in data set [1] was greater than 25 µM.

Compound `O=C(O)c1cc2ccccc2[nH]1` [INDOLE-2-CARBOXYLIC ACID] displayed an IC50 in data set [2] of 32.3 µM.

For the compound `O=C(NCc1c(F)cc(F)cc1F)c1cn2c(c(O)c1=O)C(=O)N1[C@H]3CC[C@H](C3)O[C@@H]1C2` [BICTEGRAVIR], 2.4 µM corresponded to half-maximal inhibition in [3] (IC50). Take `CC(C)Cn1ccn2cc(C(=O)NCc3ccc(F)cc3F)c(=O)c(O)c2c1=O`: the values for the IC50 in [4], in data set [6] and in [7] were 4.7 µM, 3.6 µM and 3 µM, respectively. Also, the EC50 (usually the concentration giving half of the maximal effect) in data set [5] came to 0.06 µM.

With `O=C(O)c1cc2ccc(Nc3ccc(F)cc3)cc2[nH]1`, half-maximal inhibition in data set [2] (IC50) required 3.11 µM. Consider `CC(C)n1ccn2cc(C(=O)NCc3ccc(F)cc3F)c(=O)c(O)c2c1=O`, for which the IC50 in data set [4] was found to be 4.8 µM; in data set [6], 4.3 µM; in [7], 3.8 µM. For the same compound, the concentration giving a half-maximal response (EC50) in [5] was found to be 0.05 µM. Consider `COc1ccc2[nH]c(=O)c(CNC3CCCC3)cc2c1`, for which the inhibition (in general, how much of the control response was suppressed) in [8] came out at 39.9%. On to `O=C(O)/C(O)=C/C(=O)c1cccc(Cc2ccccc2F)c1`, for which the EC50 in data set [9] came to 0.02 µM. For the compound `CC1COC2(C1)[C@H](C)n1cc(C(=O)NCc3ccc(F)cc3F)c(=O)c(O)c1C(=O)C2(C)C` (some centres undefined), in [10], the midpoint of inhibition, the IC50, lay at 0.14 µM. Consider `O=C(NCc1ccccc1)C1C(=O)N(O)C(=O)c2ccccc21` (centres undefined), for which the IC50 in data set [11] amounted to 0.36 µM.

As to `O=C(O)/C(O)=C/C(=O)c1ccc(C(c2cccc(C(=O)/C=C(\O)C(=O)O)c2)c2ccccc2F)cc1` (centres undefined), the EC50 in data set [12] was 17 µM. `CC(C)Oc1ccc(Cc2ccccc2)cc1C(=O)CC(=O)C(=O)O` showed an IC50 in data set [10] of 0.1 µM. For the compound `O=C(O)/C(O)=C/C(=O)c1cc2ccccc2n1-c1ccccc1`, the EC50 in [12] came out at 4.29 µM. `CCCCCn1c(=O)c(C(=O)Nc2cccc([N+](=O)[O-])c2O)c(O)c2ccccc21`: in data set [10], the IC50 is 9 µM. Take `Cn1cc(-c2ccc3c(c2)OCO3)c2ccc(-c3ccncc3)nc21`: the CC50 (commonly the concentration giving 50% cytotoxicity) at 48 h in data set [13] is greater than 200 µM. Consider `CC1COC2(C1)Cn1cc(C(=O)NCc3cccc(Cl)c3F)c(=O)c(O)c1C(=O)C2(C)C` (centres undefined), for which, in [10], the midpoint of inhibition, the IC50, lay at 1.23 µM. `COC(=O)/C(O)=C/C(=O)c1cc2cc3c(cc2n1-c1ccccc1)OCO3`: the EC50 in data set [12] stood at 4.29 µM. The compound `CC(C)Oc1ccc(Cc2ccccc2)cc1C(=O)/C=C(\O)C(=O)O` yielded an IC50 in data set [10] of less than 0.1 µM. As to `O=C(O)c1ccc2ccc(/C=C/c3cc(O)c(O)c(O)c3)nc2c1O`, the IC50 in [10] is 1.2 µM.

With `CC(C)N1CCn2cc(C(=O)NCc3ccc(F)cc3F)c(=O)c(O)c2C1=O`, the IC50 in data set [4] came to 3 µM; in data set [6], 5 µM; in [7], 1.7 µM.

Turning to `O=C(CCC(=O)/C(O)=C/C(=O)c1cccc(Cc2ccccc2F)c1)/C(O)=C/C(=O)c1cccc(Cc2ccccc2F)c1`, in [9], the EC50 came to 0.2 µM. For `[N-]=[N+]=NCc1cc(CN=[N+]=[N-])cc(C(=O)CC(=O)C(=O)O)c1`, the IC50 in data set [1] was found to be 5 µM.

Turning to `O=C(NCc1ccc(O)c(O)c1)c1ccc2ccc(C(=O)O)c(O)c2n1`, the IC50 in data set [10] came out at 1 µM. `Cn1c(=O)c(C(=O)O)c(O)c2cc(-c3ccc(F)cc3)ccc21` gave an IC50 in data set [10] of 0.9 µM. As for `[N-]=[N+]=NCc1ccc(C(=O)CC(=O)C(=O)O)cc1CN=[N+]=[N-]`, the IC50 in data set [1] came out at 14.3 µM. For `[N-]=[N+]=NCc1cccc(C(=O)CC(=O)C(=O)O)c1`, the IC50 in [1] was found to be 2.1 µM.

In the case of `CCOC(=O)c1cc2cc(NC(=O)c3cnccn3)ccc2[nH]1`, in [2], the midpoint of inhibition, the IC50, lay at 11.7 µM. Compound `O=C(O)c1[nH]c2ccc([N+](=O)[O-])cc2c1COCc1ccc(C(F)(F)F)cc1` came in with an IC50 in data set [2] of 10.5 µM. For `O=C(O)/C(O)=C/C(=O)c1nc2ccccc2n1Cc1ccccc1F`, in data set [14], the EC50 was 40 µM.

Regarding `COc1ccc(-c2ccc3c(-c4ccc(F)cc4F)cn(C)c3n2)cc1`, the CC50 at 48 h in data set [13] came to 49.3 µM.

As to `NNC(=O)c1ncn(-c2ccc(Br)cc2)c1-c1cccc(F)c1`, the inhibition in data set [15] stood at 50%.

In turn, `CC1COC2(C1)Cn1cc(C(=O)NCc3ccc(F)cc3F)c(=O)c(O)c1C(=O)C2(C)C` (centres undefined) yielded an IC50 in data set [10] of 0.17 µM. For the compound `COC(=O)C1C(=O)N(O)C(=O)c2ccccc21` (centres undefined), in [11], the half-maximal inhibitory concentration (IC50) was found to be 0.06 µM.

Turning to `O=c1cc(-c2ccc(O)c(O)c2)oc2cc(O[C@@H]3O[C@H](CO)[C@@H](O)[C@H](O)[C@H]3OS(=O)(=O)O)cc(O)c12`, it took 0.4 µM to reach half-maximal inhibition in data set [10] (IC50). For `C[C@@H]1CCO[C@H]2Cn3cc(C(=O)NCc4ccc(F)cc4F)c(=O)c(O)c3C(=O)N12` [DOLUTEGRAVIR], the half-life (in general, the time in which the quantity being followed falls by half) in data set [16] is 6.2 h. In data set [2], `CCOC(=O)c1[nH]c2ccccc2c1Nc1ccccc1OC` had an IC50 of 10.1 µM. Regarding `O=C(O)/C(O)=C/C(=O)c1ccc(OCc2ccccc2COc2cccc(C(=O)/C=C(\O)C(=O)O)c2)cc1`, in [12], the EC50 is 39 µM.

On to `Cc1ccc(CCOc2ccc(-c3c(C)nc(C)c([C@H](OC(C)(C)C)C(=O)O)c3N3CCC(C)(C)CC3)cc2)cc1`, for which the bioavailability – broadly, dose-corrected exposure relative to a reference, in per cent – in data set [17] was found to be 52%.

`C[C@H]1CO[C@@H]2Cn3cc(C(=O)NCc4ccc(F)cc4F)c(=O)c(O)c3C(=O)N12` [CABOTEGRAVIR] had an IC50 in data set [3] of 1.8 µM. The EC50 in data set [18] was determined as 4.77 µM.
